According to ChEMBL document CHEMBL5346873, “Strategic modification of low-activity natural antimicrobial peptides confers antibacterial potential in vitro and in vivo” (Eur J Med Chem, 2023):
Active and inactive are the calls of the source. The rule behind the calls is not given here.

Tests used:
Pseudomonas aeruginosa [1] = test: Additive antibacterial activity against Pseudomonas aeruginosa assessed as meropenem MIC by checkerboard microtiter plate assay; type: functional
Vibrio vulnificus [2] = test: Antibacterial activity against Vibrio vulnificus 204 in presence of human serum; type: functional, organism-based
Vibrio vulnificus [3] = test: Antibacterial activity against Vibrio vulnificus treated with preheated compounds; type: functional, organism-based
Vibrio vulnificus [4] = test: Bactericidal activity against Vibrio vulnificus V1 incubated overnight; type: functional
Streptococcus agalactiae [5] = test: Bactericidal activity against Streptococcus agalactiae incubated overnight; type: functional
Vibrio vulnificus [6] = test: Antibacterial activity against Vibrio vulnificus V2 incubated for 16 to 20 hrs; type: functional; details: time 16-20 hrs
Streptococcus agalactiae [7] = test: Synergistic antibacterial activity against Streptococcus agalactiae assessed as fractional inhibitory concentration in presence of meropenem by checkerboard microtiter plate assay; type: functional
Salmonella enterica = test: Antibacterial activity against Salmonella enterica incubated for 16 to 20 hrs; type: functional; details: time 16-20 hrs
Vibrio alginolyticus [8] = test: Bactericidal activity against Vibrio alginolyticus incubated overnight; type: functional
[9] = Cytotoxicity against human HaCaT cells incubated for 24 hrs by alamar blue assay; type: toxicity, cell-based; details: read-out: LD50
Klebsiella pneumoniae [10] = test: Synergistic antibacterial activity against Klebsiella pneumoniae expressing NDM1 in presence of doxycycline by checkerboard microtiter plate assay; type: functional
Salmonella typhimurium = test: Bactericidal activity against Salmonella typhimurium incubated overnight; type: functional, Salmonella enterica subsp. enterica serovar Typhimurium; details: Salmonella enterica
Edwardsiella tarda = test: Antibacterial activity against Edwardsiella tarda incubated for 16 to 20 hrs; type: functional; details: time 16-20 hrs
[11] = Cytotoxicity against human HaCaT cells incubated for 24 hrs by LDH assay; type: toxicity, cell-based; details: read-out: LD50
Pseudomonas aeruginosa [12] = test: Antibacterial activity against Pseudomonas aeruginosa incubated for 16 to 20 hrs; type: functional; details: time 16-20 hrs
Vibrio vulnificus [13] = test: Synergistic antibacterial activity against Vibrio vulnificus assessed as fractional inhibitory concentration in presence of doxycycline by checkerboard microtiter plate assay; type: functional
Streptococcus iniae [14] = test: Additive antibacterial activity against Streptococcus iniae assessed as meropenem MIC by checkerboard microtiter plate assay; type: functional
Candida tropicalis [15] = test: Fungicidal activity against Candida tropicalis incubated overnight; type: functional
Cell membrane [16] = test: Induction of membrane deformation in Vibrio vulnificus at 1 to 2 times MIC incubated for 30 mins by SEM analysis; type: subcellular
Aeromonas hydrophila = test: Antibacterial activity against Aeromonas hydrophila incubated for 16 to 20 hrs; type: functional; details: time 16-20 hrs
Streptococcus agalactiae [17] = test: Antibacterial activity against Streptococcus agalactiae incubated for 16 to 20 hrs; type: functional; details: time 16-20 hrs
Klebsiella pneumoniae [18] = test: Synergistic antibacterial activity against Klebsiella pneumoniae expressing NDM1 assessed as fractional inhibitory concentration in presence of doxycycline by checkerboard microtiter plate assay; type: functional
Streptococcus iniae [19] = test: Synergistic antibacterial activity against Streptococcus iniae in presence of doxycycline by checkerboard microtiter plate assay; type: functional
Vibrio vulnificus [20] = test: Antibacterial activity against Vibrio vulnificus 204 assessed as LPS neutralization at 0.25 to 2 times MIC measured after 1 hr by LAL assay; type: functional, organism-based
Acinetobacter baumannii [21] = test: Additive antibacterial activity against Acinetobacter baumannii assessed as meropenem MIC by checkerboard microtiter plate assay; type: functional
Klebsiella aerogenes [22] = test: Antibacterial activity against Enterobacter aerogenes incubated for 16 to 20 hrs; type: functional; details: time 16-20 hrs
Vibrio vulnificus [23] = test: Antibiofilm activity against Vibrio vulnificus V2 assessed as inhibition of biofilm formation at 50 to 100 ug/ml incubated for 24 hrs by crystal violet staining based assay; type: functional, organism-based; details: dose 50-100 µg/ml
Vibrio harveyi [24] = test: Bactericidal activity against Vibrio harveyi incubated overnight; type: functional
Vibrio vulnificus [25] = test: Antibacterial activity against Vibrio vulnificus in presence of 0.1 ug/ml pepsin; type: functional, organism-based
Klebsiella pneumoniae [26] = test: Bactericidal activity against NDM Klebsiella pneumoniae incubated overnight; type: functional
Vibrio vulnificus [27] = test: Antibiofilm activity against Vibrio vulnificus 204 assessed as inhibition of biofilm formation at 25 ug/ml incubated for 24 hrs by crystal violet staining based assay; type: functional, organism-based; details: dose 25.0 µg/ml
Acinetobacter baumannii [28] = test: Antibacterial activity against Acinetobacter baumannii; type: functional
Candida tropicalis [29] = test: Antifungal activity against Candida tropicalis incubated for 16 to 20 hrs; type: functional; details: time 16-20 hrs
Streptococcus iniae [30] = test: Additive antibacterial activity against Streptococcus iniae assessed as fractional inhibitory concentration in presence of meropenem by checkerboard microtiter plate assay; type: functional
Vibrio vulnificus [31] = test: Antibacterial activity against Vibrio vulnificus 204 assessed as induction of resistance development by measuring fold increase in MIC measured after 15 passages; type: functional
[32] = test system: Staphylococcus haemolyticus; test: Antibacterial activity against Staphylococcus haemolyticus incubated for 16 to 20 hrs; type: functional; details: time 16-20 hrs
Pseudomonas aeruginosa [33] = test: Bactericidal activity against Pseudomonas aeruginosa incubated overnight; type: functional
Cell membrane [34] = test: Induction of membrane depolarization in Vibrio vulnificus at 100 ug/ml by DiBAC4(3) dye based fluorescence analysis; type: subcellular; details: dose 100.0 µg/ml
Acinetobacter baumannii [35] = test: Additive antibacterial activity against Acinetobacter baumannii assessed as fractional inhibitory concentration in presence of meropenem by checkerboard microtiter plate assay; type: functional
Klebsiella oxytoca = test: Bactericidal activity against Klebsiella oxytoca incubated overnight; type: functional
Streptococcus iniae [36] = test: Synergistic antibacterial activity against Streptococcus iniae assessed as fractional inhibitory concentration in presence of doxycycline by checkerboard microtiter plate assay; type: functional
Vibrio vulnificus [37] = test: Antibacterial activity against Vibrio vulnificus 204 incubated for 16 to 20 hrs; type: functional; details: time 16-20 hrs
Vibrio vulnificus [38] = test: Antibiofilm activity against Vibrio vulnificus V2 assessed as inhibition of biofilm formation at 25 ug/ml incubated for 24 hrs by crystal violet staining based assay; type: functional, organism-based; details: dose 25.0 µg/ml
Vibrio alginolyticus [39] = test: Antibacterial activity against Vibrio alginolyticus incubated for 16 to 20 hrs; type: functional; details: time 16-20 hrs
Nakaseomyces glabratus [40] = test: Antifungal activity against Candida glabrata incubated for 16 to 20 hrs; type: functional; details: time 16-20 hrs
[41] = Dermal toxicity in BALB/c mouse assessed as irritation at 125 mg/kg, TOPp measured after 48 hrs; type: organism-based; details: in vivo, topical_or_ocular
Nakaseomyces glabratus [42] = test: Fungicidal activity against Candida glabrata incubated overnight; type: functional
Streptococcus agalactiae [43] = test: Synergistic antibacterial activity against Streptococcus agalactiae in presence of meropenem by checkerboard microtiter plate assay; type: functional
Klebsiella aerogenes [44] = test: Synergistic antibacterial activity against Enterobacter aerogenes assessed as fractional inhibitory concentration in presence of meropenem by checkerboard microtiter plate assay; type: functional
Vibrio vulnificus [45] = test: Bactericidal activity against Vibrio vulnificus V3 incubated overnight; type: functional
Vibrio vulnificus [46] = test: Antibacterial activity against Vibrio vulnificus V1 incubated for 16 to 20 hrs; type: functional; details: time 16-20 hrs
Vibrio harveyi [47] = test: Antibacterial activity against Vibrio harveyi incubated for 16 to 20 hrs; type: functional; details: time 16-20 hrs
Vibrio vulnificus [48] = test: Antibacterial activity against Vibrio vulnificus in presence of 10 ug/ml proteinase K; type: functional, organism-based
Escherichia coli = test: Bactericidal activity against Escherichia coli incubated overnight; type: functional
Streptococcus agalactiae [49] = test: Synergistic antibacterial activity against Streptococcus agalactiae in presence of doxycycline by checkerboard microtiter plate assay; type: functional
[50] = Dermal toxicity in BALB/c mouse assessed as morphological changes at 125 mg/kg, TOPp measured after 48 hrs; type: organism-based; details: in vivo, topical_or_ocular
Acinetobacter baumannii [51] = test: Synergistic antibacterial activity against Acinetobacter baumannii assessed as doxycycline MIC by checkerboard microtiter plate assay; type: functional
[52] = test system: Staphylococcus haemolyticus; test: Bactericidal activity against Staphylococcus haemolyticus incubated overnight; type: functional
Streptococcus iniae [53] = test: Antibacterial activity against Streptococcus iniae incubated for 16 to 20 hrs; type: functional; details: time 16-20 hrs
Pseudomonas aeruginosa [54] = test: Additive antibacterial activity against Pseudomonas aeruginosa assessed as fractional inhibitory concentration in presence of meropenem by checkerboard microtiter plate assay; type: functional

For H-FKWKSVLKGVKGFVKGYF-OH, the MIC (Pseudomonas aeruginosa [1]) was 0.195 µg/mL, the Activity (Vibrio vulnificus [2]) was “Active” and the Activity (Vibrio vulnificus [3]) was “Active”. It also gave an MBC (Vibrio vulnificus [4]) of 12.5 µg/mL, an MBC (Streptococcus agalactiae [5]) of 3.12 µg/mL and an MIC (Vibrio vulnificus [6]) of 12.5 µg/mL. It also gave an FIC (Streptococcus agalactiae [7]) of 0.07, an MIC (Salmonella enterica) of 12.5 µg/mL and an MBC (Vibrio alginolyticus [8]) of 6.25 µg/mL. For the same substance, the CC50 at 24 h [9] was > 100 µg/mL, the MIC (Klebsiella pneumoniae [10]) was 1.56 µg/mL and the MBC (Salmonella typhimurium) was 12.5 µg/mL. The MIC (Edwardsiella tarda) was 50 µg/mL, the CC50 at 24 h [11] was > 100 µg/mL and the MIC (Pseudomonas aeruginosa [12]) was 25 µg/mL. It also gave an FIC (Vibrio vulnificus [13]) of 0.14, an MIC (Streptococcus iniae [14]) of 0.195 µg/mL and an MFC (Candida tropicalis [15]) of 100 µg/mL. The Activity (Cell membrane [16]) was “Active”, the MIC (Aeromonas hydrophila) was > 100 µg/mL and the MIC (Streptococcus agalactiae [17]) was 3.12 µg/mL. The FIC (Klebsiella pneumoniae [18]) was 0.18, the MIC (Streptococcus iniae [19]) was 0.024 µg/mL and the Activity (Vibrio vulnificus [20]) was “Active”. The MIC (Acinetobacter baumannii [21]) was 0.195 µg/mL, the MIC (Klebsiella aerogenes [22]) was 12.5 µg/mL and the Activity (Vibrio vulnificus [23]) was “Active”. For the same substance, the MBC (Vibrio harveyi [24]) was > 100 µg/mL, the Activity (Vibrio vulnificus [25]) was “Active” and the MBC (Klebsiella pneumoniae [26]) was 25 µg/mL. For the same substance, the Activity (Vibrio vulnificus [27]) was “inactive”, the MIC (Acinetobacter baumannii [28]) was 3.12 µg/mL and the MIC (Candida tropicalis [29]) was 50 µg/mL. The FIC (Streptococcus iniae [30]) was 0.51, the “fold change (FC)” value (Vibrio vulnificus [31]) was <2 and the MIC [32] was < 1.56 µg/mL. For the same substance, the MBC (Pseudomonas aeruginosa [33]) was 50 µg/mL, the Activity (Cell membrane [34]) was “Active” and the FIC (Acinetobacter baumannii [35]) was 0.51. For the same substance, the MBC (Klebsiella oxytoca) was 25 µg/mL, the FIC (Streptococcus iniae [36]) was 0.04 and the MIC (Vibrio vulnificus [37]) was 6.25 µg/mL. For the same substance, the Activity (Vibrio vulnificus [38]) was “inactive”, the MIC (Vibrio alginolyticus [39]) was 3.12 µg/mL and the MIC (Nakaseomyces glabratus [40]) was > 100 µg/mL. The Activity [41] was “Non-Toxic”, the MFC (Nakaseomyces glabratus [42]) was > 100 µg/mL and the MIC (Streptococcus agalactiae [43]) was 0.097 µg/mL. It also gave an FIC (Klebsiella aerogenes [44]) of 0.14, an MBC (Vibrio vulnificus [45]) of 12.5 µg/mL and an MIC (Vibrio vulnificus [46]) of 12.5 µg/mL. For the same substance, the MIC (Vibrio harveyi [47]) was > 100 µg/mL, the Activity (Vibrio vulnificus [48]) was “inactive” and the MBC (Escherichia coli) was 6.25 µg/mL. For the same substance, the MIC (Streptococcus agalactiae [49]) was 0.097 µg/mL, the Activity [50] was “Non-Toxic” and the MIC (Acinetobacter baumannii [51]) was 0.003 µg/mL. The MBC [52] was < 1.56 µg/mL, the MIC (Streptococcus iniae [53]) was < 1.56 µg/mL and the FIC (Pseudomonas aeruginosa [54]) was 0.75.
